Results from patent US11040963B2 (priority 2017, dated 2021).

How the values were obtained:
[1] = tested on: H1N1 A/New Caledonia/20/99; assay: microbe, parasite or virus in culture; format: cell-based, influenza A virus; details: Influenza A virus, H1N1, MDCK, 96 h, read-out: Virus neutralization assay (VNA), pEC50 H1N1 A/New Caledonia/20/99 (converted)
in vitro = details: dog, Cytotoxicity (pCC50) MDCK
[2] = target: HA H1 A/California/07/09 (Influenza A virus (A/California/07/2009(H1N1)), UniProt C3W5X2); assay: biochemical; details: Competition binding (AlphaLISA), pIC50 H1 A/California/07/09
[3] = target: HA H1 A/New Caledonia/20/99 (Influenza A virus (A/New Caledonia/20/1999(H1N1)), UniProt Q6WG00); assay: biochemical; details: Competition binding (AlphaLISA), pIC50 H1 A/New Caledonia/20/99
[4] = target: HA H5 A/Vietnam/1203/04 (Influenza A virus (A/Vietnam/1203/2004(H5N1)), UniProt Q5EP31); assay: biochemical; details: Competition binding (AlphaLISA), pIC50 H5 A/Vietnam/1203/04
H5N1 A/Vietnam/1203/04 = assay: microbe, parasite or virus in culture; format: cell-based, influenza A virus; details: Influenza A virus, H5N1, MDCK, 96 h, read-out: Virus neutralization assay (VNA), pEC50 H5N1 A/Vietnam/1203/04, MDCK cells, 96 h, CPE by ATPlite (converted); average of repeats
H1N1 A/California/07/09 = assay: microbe, parasite or virus in culture; format: cell-based, influenza A virus; details: Influenza A virus, H1N1, MDCK, 96 h, read-out: Virus neutralization assay (VNA), pEC50 H1N1 A/California/07/09 (converted)

| Structure (SMILES) | EC50 [1] [µM] | CC50 (in vitro) [µM] | IC50 [2] [µM] | IC50 [3] [µM] | IC50 [4] [µM] | EC50 (H5N1 A/Vietnam/1203/04) [µM] | EC50 (H1N1 A/California/07/09) [µM] |
| --- | --- | --- | --- | --- | --- | --- | --- |
| COC(=O)C(c1ccccc1)N1CCN(C(=O)c2cccc(-c3nc4cc(OC5CC5)ccc4o3)c2)CC1 (stereo not drawn) [Example 1, Methyl 2-(4-(3-(5-cyclopropoxybenzo[d]oxazol-2-yl)benzoyl)piperazin-1-yl)-2-phenylacetate] | 0.00251 | > 50.1 | 0.00126 | 0.000631 | 0.0631 | 0.2 | 0.00251 |
| CC(=O)Nc1ccc2oc(-c3ccnc(C(=O)N4CCN([C@H](c5ccccc5)c5n[nH]c(C)n5)CC4)c3)nc2c1 [Example 2] | 0.00251 | > 50.1 | 0.00794 | 0.00501 | 0.158 | 1 | 0.01 |
| COc1nnc([C@@H](c2ccccc2)N2CCN(C(=O)c3cc(-c4nc5cc(OC(F)(F)F)ccc5o4)ccn3)CC2)o1 [Example 4] | 0.0794 | > 50.1 | 0.0126 | 0.00794 | 0.1 | 1.26 | 0.1 |
| CC(=O)Nc1ccc2oc(-c3ccnc(C(=O)N4CCN(C(c5ccccc5)c5n[nH]c(C)n5)CC4)c3)nc2c1 (stereo not drawn) [Example 5] | 0.00631 | > 50.1 | 0.0251 | 0.0158 | 0.501 | 1.26 | 0.0158 |
| CC(=O)Nc1ccc2oc(-c3cccc(C(=O)N4CCN(C(c5ccccc5)c5n[nH]c(C)n5)CC4)c3)nc2c1 (stereo not drawn) [Example 6] | 0.00631 | > 50.1 | 0.02 | 0.01 | 0.501 | 12.6 | 0.02 |
| COC(=O)C(c1ccccc1)N1CCN(C(=O)c2cccc(-c3nc4cc(NC(C)=O)ccc4o3)c2)CC1 (stereo not drawn) [Example 7] | 0.0251 | 31.6 | 0.00631 | 0.00316 | 0.158 | 1.58 | 0.0251 |
| COC(=O)[C@@H](c1ccccc1)N1CCN(C(=O)c2cccc(-c3nc4cc(OC)ccc4o3)c2)CC1 [Example 8] | 0.0316 | > 50.1 | 0.00631 | 0.00398 | 0.2 | 1.26 | 0.0398 |
| CNc1ccc2oc(-c3cccc(C(=O)N4CCN(C(C(=O)OC)c5ccccc5)CC4)c3)nc2c1 (stereo not drawn) [Example 9] | 0.0398 | 10 | 0.00631 | 0.00398 | 0.251 | 1.58 | 0.0631 |
| COC(=O)C(c1ccccc1)N1CCN(C(=O)c2cccc(-c3nc4cc(N)ccc4o3)c2)CC1 (stereo not drawn) [Example 10] | 0.0501 | 25.1 | 0.0251 | 0.0158 | 0.794 | 2.51 | 0.0794 |
| COC(=O)C(c1ccccc1)N1CCN(C(=O)c2cccc(-c3nc4cc(N(C)C)ccc4o3)c2)CC1 (stereo not drawn) [Example 11] | 0.0501 | 3.98 | 0.00794 | 0.00631 | 0.316 | 1.26 | 0.0794 |
| Cc1nnc([C@@H](c2ccccc2)N2CCN(C(=O)c3cc(-c4nc5cc(OC(F)(F)F)ccc5o4)ccn3)CC2)o1 [Example 12] | 0.0398 | 15.8 | 0.00631 | 0.00794 | 0.158 | 1.26 | 0.0398 |
| COC(=O)C(c1ccccc1)N1CCN(C(=O)c2cccc(-c3nc4cc(OC)ccc4o3)c2)CC1 (stereo not drawn) [Example 13] | 0.0501 | 50.1 | 0.00794 | 0.00631 | 0.501 | 3.16 | 0.0794 |
| COC(=O)C(c1ccccc1)N1CCN(C(=O)c2cc(-c3nc4ccc(OC)cc4s3)ccn2)CC1 (stereo not drawn) [Example 14] | 0.0631 | 15.8 | 0.02 | 0.01 | 0.126 | 1 | 0.126 |
| CC(=O)Nc1ccc2oc(-c3ccnc(C(=O)N4CCN([C@H](c5ccccc5)c5nnc(C)o5)CC4)c3)nc2c1 [Example 15] | 0.0398 | > 50.1 | 0.00316 | 0.00631 | 0.158 | 7.94 | 0.158 |
| COC(=O)C(c1ccccc1)N1CCN(C(=O)c2cc(-c3nc4cc(C(F)(F)F)ccc4o3)ccn2)CC1 (stereo not drawn) [Example 16] | 0.0794 |  | 0.0158 | 0.0158 | 0.398 | 3.16 | 0.0794 |
| Cc1nnc([C@@H](c2ccccc2)N2CCN(C(=O)c3cc(-c4nc5cc(C(F)(F)F)ccc5o4)ccn3)CC2)o1 [Example 17] | 0.2 | 7.94 | 0.0158 | 0.0316 | 0.631 | 3.98 | 0.126 |
| Cc1coc(C(c2ccccc2)N2CCN(C(=O)c3cc(-c4nc5cc(OC(F)(F)F)ccc5o4)ccn3)CC2)n1 (stereo not drawn) [Example 18] | 0.0794 | > 50.1 | 0.0398 | 0.02 | 0.398 | 20 | 0.2 |
| Cc1cnc(C(c2ccccc2)N2CCN(C(=O)c3cc(-c4nc5cc(OC(F)(F)F)ccc5o4)ccn3)CC2)o1 (stereo not drawn) [Example 20] | 0.1 | 25.1 | 0.0126 | 0.02 | 0.501 | 7.94 | 0.0794 |
| COc1nnc(C(c2ccccc2)N2CCN(C(=O)c3cc(-c4nc5cc(OC(F)(F)F)ccc5o4)ccn3)CC2)o1 (stereo not drawn) [Example 21] | 0.0794 | 12.6 | 0.0158 | 0.02 | 0.794 | 6.31 | 0.1 |
| COC(=O)C(c1ccccc1)N1CCN(C(=O)c2cccc(-c3nc4cc(OC(F)(F)F)ccc4o3)c2)CC1 (stereo not drawn) [Example 23] | 0.126 | > 50.1 | 0.02 | 0.01 | 0.398 | 20 | 0.158 |
| COC(=O)C(c1ccccc1)N1CCN(C(=O)c2cccc(-c3nc4ncccc4o3)c2)CC1 (stereo not drawn) [Example 24] | 0.126 | > 50.1 | 0.0631 | 0.0398 | 3.16 | 12.6 | 0.158 |
| COc1ccc2oc(-c3ccnc(C(=O)N4CCN(C(c5ccccc5)c5nnc(C)o5)CC4)c3)nc2c1 (stereo not drawn) [Example 25] | 0.0794 | 25.1 | 0.0158 | 0.0251 | 0.794 | 3.98 | 0.0631 |
| COC(=O)[C@@H](c1ccccc1)N1CCN(C(=O)c2cccc(-c3nc4cc(C(F)(F)F)ccc4o3)c2)CC1 [Example 26] | 0.158 | > 50.1 | 0.0251 | 0.02 | 0.501 | 7.94 | 0.158 |
| Cc1nnc(C(c2ccccc2)N2CCN(C(=O)c3cc(-c4nc5cc(OC(F)(F)F)ccc5o4)ccn3)CC2)o1 (stereo not drawn) [Example 28] | 0.158 | 15.8 | 0.0158 | 0.02 | 0.501 | 3.98 | 0.2 |
| COC(=O)C(c1ccccc1)N1CCN(C(=O)c2cccc(-c3nc4cc(O)ccc4o3)c2)CC1 (stereo not drawn) [Example 30] | 0.158 | 25.1 | 0.0251 | 0.0251 | 0.631 | 7.94 | 0.251 |
| Cc1nnc(C(c2ccccc2)N2CCN(C(=O)c3cc(-c4nc5ccccc5s4)ccc3F)CC2)o1 (stereo not drawn) [Example 48] | 0.316 |  | 0.251 | 0.2 | 12.6 | > 50.1 | 0.631 |
| Cc1nnc(C(c2ccccc2)N2CCN(C(=O)c3cc(-c4nc5ccccc5o4)ccc3F)CC2)o1 (stereo not drawn) [Example 52] | 0.398 |  | 0.2 | 0.2 | 20 | > 50.1 | 0.631 |
| Cc1nnc([C@@H](c2ccccc2)N2CCN(C(=O)[C@H]3CCCN(c4nc5cc(C(F)(F)F)ccc5o4)C3)CC2)o1 [Example 96] | 1 |  | 0.2 | 0.316 | 15.8 | 50.1 | 0.794 |
| Cc1nnc(C(c2ccccc2)N2CCN(C(=O)c3ccnc(-c4nc5cc(C(F)(F)F)ccc5o4)c3)CC2)o1 (stereo not drawn) [Example 101] | 1 |  | 0.631 | 0.794 | 39.8 | > 50.1 | 2 |
| Cc1nnc(C(c2ccccc2)N2CCN(C(=O)[C@H]3CCCN(c4nc5cc(C(F)(F)F)ccc5o4)C3)CC2)o1 (stereo partly drawn) [Example 110] | 1.26 |  | 0.398 | 0.794 | 50.1 | > 50.1 | 1.26 |
